Patent publication US20200215085A1, “Method to Abate Acute Airway Hypersensitivity and Asthma Attacks” (UTI Limited Partnership, priority 2017, published 2020)
“Also recorded” adds a separate entry of the source.

Columns and labels:
carotid body [1] = assay: en bloc perfused carotid body preparation: carotid sinus nerve response to LPA; design: species or system Sprague-Dawley rats; conditions: for reduction of 5 μM LPA-mediated carotid sinus nerve excitation: 5 μM LPA (18:1), AMG9810 10 μM, BrP-LPA 1.5 μM, Ki16425 5 μM, mean±sem; for effect of LPAr blockade on carotid sinus nerve response to LPA (5 μM): BrP-LPA 1.5 μM or Ki16425 5 μM, FIGS. 2A-2B; for en bloc carotid body's response to LPA blocked: en bloc preparation
OVA-sensitized rats = assay: bradykinin-induced bronchoconstriction (RL, Flexivent) in anesthetized ovalbumin-sensitized rats; format: in vivo, Brown Norway rats; conditions: nebulized 0.4 mg bradykinin at 1, 10, 20 min, antagonists iv (BrP-LPA 3 mg/kg, Ki16425 5 mg/kg, AMG9810 10 μM/kg)
Protocol: In order to examine the involvement of LPA-induced carotid body activity on airway resistance in response to bradykinin nebulization, alfaxan-anesthetized animals and the Flexivent system were used. These experiments were performed with a number of acute interventions affecting the proposed pathway, including vagotomy, carotid body denervation, and TRPV1 and/or LPA receptor blockade. Prior to bradykinin, these interventions had no effect on airway resistance (Holm-S̆idák post hoc test comparing asthma control vs any manipulation group: p>0.06) and as expected, bradykinin had no effect on non-asthmatic lungs (p>0.3). However, the acute bronchoconstriction induced by bradykinin in asthmatic lungs was diminished by at least 60% with all interventions (FIG. 4B). The loss of bradykinin-induced bronchoconstriction also occurred in chronic carotid body denervated, but not sham rats (data not shown).
Brown Norway rats (80-120 g) were sensitized to ovalbumin (1 mg) with pertussis toxin (0.5 ng) and aluminum hydroxide as adjuvant (0.15 g) dissolved in saline (1 ml ip; OVA sensitized), or saline (1 ml ip; Naïve) for three consecutive days (Days 1, 2, and 3) and challenged with aerosolized 5% ovalbumin (OVA, dissolved in 0.9% saline) or saline (Naïve) on days 15, 18 and 21 for 10 min. All anaesthetized experiments conducted on OVA and Naïve rats were conducted ˜7 days (day 28) following the last aerosol exposure. […]
OVA Cohort 1 (n=26): To determine the effect of bradykinin and OVA-sensitization on airway resistance (RL) OVA-sensitization (day 28) and naïve rats were anesthetized with isoflurane (5%, balance O2) and instrumented for surgery. […] Data were analyzed with two-way repeated measures ANOVA (time×group). […] Airway mechanics were measured in response to bradykinin nebulizations (as in Cohort 1). Heart rate was attained from the blood pressure waveform, SaO2 was monitored from a pulse oximeter (Kent Scientific, Torrington Conn.) and blood gases were analyzed from 0.1 ml arterial samples drawn before and after bradykinin with a blood gas analyzer (Element POC, Heska Barrie, ON). […]

carotid body [2] = assay: in situ dual-perfused preparation: phrenic and vagal nerve discharge after LPA to the carotid body circulation; design: species or system Sprague-Dawley rats; conditions: carotid bodies intact
naïve Brown Norway rats = assay: airway resistance after intravenous bolus in naïve anesthetized ventilated rats (Flexivent); format: in vivo; conditions: naïve rats with intact CSN; 0.5 ml bolus, 5 μM LPA or 6 μM NaCN
glomus cells = assay: Fura 2 calcium imaging of carotid body type I (glomus) cells; format: cell-based, Sprague-Dawley rats; conditions: LPA 5 μM
Protocol: Sprague-Dawley rats (80-150 g, P21-28) were anaesthetised with isoflurane (3-5% in O2) and carotid bodies were harvested and digested in 0.4 mg ml^−1 collagenase type I (Worthington Biochemical Corporation, Lakewood, N.J.) and 0.2 mg ml^−1 trypsin type I (Sigma-Aldrich, St. Catherines, QC) in DPBS enzyme solution with low CaCl2) (86 μM) and MgCl2 (350 μM), for 20 min at 37° C. followed by dissociation with forceps and incubated for an additional 7 min. The tissue was centrifuged (115 g) for 3 min, supernatant removed and the pellet re-suspended in Ham's F12 (Sigma-Aldrich, St. Catherines, QC) supplemented with 10% heat inactivated fetal bovine serum (Biowest, San Marcos, Tex.). Cells were released by trituration with fire polished silanised Pasteur pipettes (Sigma-Aldrich, St. Catherines, QC). […]
Type I cells were loaded with 5 μM FURA-2AM (Invitrogen, Carlsbad Calif.) in serum free Ham's F12 nutrient media for 30 min at room temperature in humidified 5% CO2, 10% O2, before being transferred to FURA-2AM-free media in the same conditions for 20 min. […] The FURA-2 loaded cells were excited by 50 ms exposures to 340/380 nm light using a Lambda 10-3 filter wheel every 5 s and emitted light was recorded at 510 nm using a Coolsnap HQ2 CCD camera (Photometrics, Tucson Ariz.). […]

asthmatic rats = assay: airway resistance after nebulized LPA in asthmatic rats (Cohort 5); format: in vivo, rat; conditions: nebulized LPA 5 μM

Molecule	reduction of 5 μM LPA-mediated carotid sinus nerve excitation (carotid body [1]) [%]	effect of LPAr blockade on carotid sinus nerve response to LPA (5 μM) (carotid body [1])	en bloc carotid body's response to LPA blocked (carotid body [1])	effect on bradykinin-induced increase in RL compared to OVA (OVA-sensitized rats)	phrenic nerve burst amplitude (carotid body [2]; LPA 5 μM delivered to the CB circulation, baseline 1±0.5) [normalized units]	phrenic nerve burst rate (carotid body [2]; LPA 5 μM delivered to the CB circulation, baseline 1.2±0.8) [burst·min^−1]	phrenic and vagal nerve efferent discharge (carotid body [2]; bolus of 5 μM LPA)	airway resistance (naïve Brown Norway rats)	intracellular calcium in glomus cells (glomus cells)	immediate effect of nebulized LPA on airway resistance (asthmatic rats)	airway resistance after 30 min of nebulized LPA (asthmatic rats; abolished by carotid body denervation)	LPA response remaining after BrP-LPA or Ki16425 blockade, on subsequent application of AMG9810 (carotid body [1]; AMG9810 10 μM added after LPAr blockade (dual block), LPA 5 μM)
CCCCCCCCCCCCCCCC(=O)OC[C@@H](O)CC(Br)P(=O)(O)O (stereo partly drawn) [BrP-LPA, [(3S)-1-bromo-4-hexadecanoyloxy-3-hydroxybutyl]phosphonic acid]	70±3	diminishes the response to LPA	Approximately 70%	abolished the effects of bradykinin								
Oleoyl-Lysophosphatidic acid [LPA]					2.5±0.5	20.8±2.9	increases	increased airway resistance	increased intracellular calcium release	no immediate effect	increase in airway resistance	
Cc1noc(-c2ccc(CSCCC(=O)O)cc2)c1NC(=O)OC(C)c1ccccc1Cl (stereo not drawn) [Ki16425, 3-(4-[4-([1-(2-chlorophenyl)ethoxy]carbonylamino)-3-methyl-5-isoxazolyl]benzylsulfanyl) propanoic acid]	61±9	diminishes the response to LPA	Approximately 70%	abolished the effects of bradykinin								
CC(C)(C)c1ccc(/C=C/C(=O)Nc2ccc3c(c2)OCCO3)cc1 [AMG9810, (2E)-N-(2,3-Dihydro-1,4-benzodioxin-6-yl)-3-[4-(1,1-dimethylethyl)phenyl]-2-propenamide]	41±6			abolished the effects of bradykinin								blocks the LPA response; also recorded: almost abolished
